Source: ChEMBL document CHEMBL6121048 (J Med Chem, 2025)
Calls of active or inactive are those of the source. The calls are words filed in the database; no cut-off is given here.

Key:
[1] = target: T1, Glutamate NMDA receptor; Grin1/Grin2a (Rattus norvegicus, UniProt P35439+Q00959); assay: Partial agonist activity at recombinant rat GluN1/GluN2A NMDA receptor expressed in xenopus laevis oocytes in presence of L-glutamate by two-electrode voltage-clamp method; type: cell-based
[2] = target: T2, Glutamate NMDA receptor; Grin1/Grin2a (Rattus norvegicus) (UniProt P35439+Q00959); assay: Partial agonist activity at recombinant rat GluN1/GluN2A NMDA receptor expressed in xenopus laevis oocytes by measuring maximum response by two-electrode voltage-clamp method relative to glycine; type: cell-based; conditions: filed as partial agonist
[3] = target: T3, Ionotropic glutamate receptor NMDA 1/2D (Rattus norvegicus, UniProt P35439+Q62645); assay: Partial agonist activity at recombinant rat GluN1/GluN2D NMDA receptor expressed in xenopus laevis oocytes in presence of L-glutamate by two-electrode voltage-clamp method; type: cell-based
[4] = target: T4, Ionotropic glutamate receptor NMDA 1/2D (Rattus norvegicus) (UniProt P35439+Q62645); assay: Partial agonist activity at recombinant rat GluN1/GluN2D NMDA receptor expressed in xenopus laevis oocytes by measuring maximum response by two-electrode voltage-clamp method relative to glycine; type: cell-based
[5] = target: T5, Glutamate NMDA receptor; Grin1/Grin2b (Rattus norvegicus) (UniProt P35439+Q00960); assay: Agonist activity at recombinant rat GluN1/GluN2B NMDA receptor expressed in xenopus laevis oocytes at 30 uM by two-electrode voltage-clamp method relative to control; type: cell-based
[6] = target: T6, Glutamate NMDA receptor; Grin1/Grin2c (Rattus norvegicus, UniProt P35439+Q00961); assay: Agonist activity at recombinant rat GluN1/GluN2C NMDA receptor expressed in xenopus laevis oocytes in presence of L-glutamate by two-electrode voltage-clamp method; type: cell-based
[7] = target: T7, Glutamate NMDA receptor; Grin1/Grin2c (Rattus norvegicus) (UniProt P35439+Q00961); assay: Agonist activity at recombinant rat GluN1/GluN2C NMDA receptor expressed in xenopus laevis oocytes by measuring maximum response by two-electrode voltage-clamp method relative to glycine; type: cell-based; conditions: filed as agonist
[8] = Efflux ratio of apparent permeability across basolateral to apical over apical to basolateral side in dog MDR1-deficient MDCK cells expressing human MDR1 at 3 uM by LC-MS/MS analysis; type: ADME, cell-based, Canis lupus familiaris
[9] = Apparent permeability across basolateral to apical side in dog MDR1-deficient MDCK cells expressing human MDR1 at 3 uM by LC-MS/MS analysis; type: ADME, cell-based, Canis lupus familiaris
[10] = Apparent permeability across apical to basolateral side in dog MDR1-deficient MDCK cells expressing human MDR1 at 3 uM by LC-MS/MS analysis; type: ADME, cell-based, Canis lupus familiaris
[11] = Metabolic stability in human liver microsomes assessed as half life at 1 uM incubated for 5 mins in presence of NADPH by LC-MS/MS analysis; type: ADME, Microsome
[12] = species: Rattus norvegicus; assay: Agonist activity at recombinant rat GluN1 V689I mutant receptor expressed in xenopus laevis oocytes assessed as fold reduction by two-electrode voltage-clamp method; type: cell-based; conditions: filed as agonist
[13] = species: Rattus norvegicus; assay: Selectivity ratio of EC50 for partial agonist activity at recombinant rat GluN1/GluN2A NMDA receptor expressed in xenopus laevis oocytes to EC50 for agonist activity at recombinant rat GluN1/GluN2C NMDA receptor expressed in xenopus laevis oocytes; type: cell-based
[14] = Selectivity ratio of EC50 for wild type GluN1/GluN2C receptor to EC50 for GluN1 V689I/2C receptor expressed in xenopus laevis oocytes; type: cell-based
[15] = species: Rattus norvegicus; assay: Selectivity ratio of EC50 for partial agonist activity at recombinant rat GluN1/GluN2D NMDA receptor expressed in xenopus laevis oocytes to EC50 for agonist activity at recombinant rat GluN1/GluN2C NMDA receptor expressed in xenopus laevis oocytes; type: cell-based
[16] = Selectivity ratio of EC50 for wild type GluN1/2C receptor to EC50 for GluN1 S688A/2C mutant receptor expressed in xenopus laevis oocytes; type: cell-based
[17] = species: Rattus norvegicus; assay: Agonist activity at recombinant rat GluN1 Y692L mutant receptor expressed in xenopus laevis oocytes in presence of L-glutamate by two-electrode voltage-clamp method; type: cell-based
[18] = target: T5, Glutamate NMDA receptor; Grin1/Grin2b (Rattus norvegicus); assay: Agonist activity at recombinant rat GluN1/GluN2B NMDA receptor expressed in xenopus laevis oocytes at 10 uM by two-electrode voltage-clamp method relative to control; type: cell-based
[19] = species: Rattus norvegicus; assay: Agonist activity at recombinant rat GluN1 F754L mutant receptor expressed in xenopus laevis oocytes in presence of L-glutamate by two-electrode voltage-clamp method; type: cell-based
[20] = target: T5, Glutamate NMDA receptor; Grin1/Grin2b (Rattus norvegicus); assay: Agonist activity at recombinant rat GluN1/GluN2B NMDA receptor expressed in xenopus laevis oocytes at 1 uM by two-electrode voltage-clamp method relative to control; type: cell-based
[21] = target: Ionotropic glutamate receptor NMDA 1/2C (Homo sapiens) (UniProt Q05586+Q14957); assay: Agonist activity at GluN1/GluN2C (unknown origin) expressed in xenopus laevis oocytes by measuring maximum response by two-electrode voltage-clamp method relative to glycine; type: cell-based
[22] = target: T5, Glutamate NMDA receptor; Grin1/Grin2b (Rattus norvegicus); assay: Agonist activity at recombinant rat GluN1/GluN2B NMDA receptor expressed in xenopus laevis oocytes by measuring maximum response by two-electrode voltage-clamp method relative to glycine; type: cell-based; conditions: filed as agonist
[23] = target: Glutamate NMDA receptor; Grin1/Grin2b (Rattus norvegicus, UniProt P35439+Q00960); assay: Inhibition of recombinant rat GluN1/GluN2B NMDA receptor expressed in xenopus laevis oocytes in presence of glycine and L-glutamate by two-electrode voltage-clamp method; type: cell-based
[24] = target: T7, Glutamate NMDA receptor; Grin1/Grin2c (Rattus norvegicus); assay: Inhibition of recombinant rat GluN1/GluN2C NMDA receptor expressed in xenopus laevis oocytes in presence of glycine and L-glutamate by measuring maximum response by two-electrode voltage-clamp method relative to control; type: cell-based
[25] = target: T2, Glutamate NMDA receptor; Grin1/Grin2a (Rattus norvegicus); assay: Inhibition of recombinant rat GluN1/GluN2A NMDA receptor expressed in xenopus laevis oocytes in presence of glycine and L-glutamate by measuring maximum response by two-electrode voltage-clamp method relative to control; type: cell-based
[26] = target: T4, Ionotropic glutamate receptor NMDA 1/2D (Rattus norvegicus); assay: Inhibition of recombinant rat GluN1/GluN2D NMDA receptor expressed in xenopus laevis oocytes at 30 uM in presence of glycine and L-glutamate by measuring maximum response by two-electrode voltage-clamp method relative to control; type: cell-based
[27] = target: T3, Ionotropic glutamate receptor NMDA 1/2D; assay: Inhibition of recombinant rat GluN1/GluN2D NMDA receptor expressed in xenopus laevis oocytes in presence of glycine and L-glutamate by two-electrode voltage-clamp method; type: cell-based
[28] = target: T1, Glutamate NMDA receptor; Grin1/Grin2a; assay: Inhibition of recombinant rat GluN1/GluN2A NMDA receptor expressed in xenopus laevis oocytes in presence of glycine and L-glutamate by two-electrode voltage-clamp method; type: cell-based
[29] = target: T5, Glutamate NMDA receptor; Grin1/Grin2b (Rattus norvegicus); assay: Inhibition of recombinant rat GluN1/GluN2B NMDA receptor expressed in xenopus laevis oocytes in presence of glycine and L-glutamate by measuring maximum response by two-electrode voltage-clamp method relative to control; type: cell-based
[30] = target: T6, Glutamate NMDA receptor; Grin1/Grin2c; assay: Inhibition of recombinant rat GluN1/GluN2C NMDA receptor expressed in xenopus laevis oocytes in presence of glycine and L-glutamate by two-electrode voltage-clamp method; type: cell-based
[31] = target: T5, Glutamate NMDA receptor; Grin1/Grin2b (Rattus norvegicus); assay: Agonist activity at recombinant rat GluN1/GluN2B NMDA receptor expressed in xenopus laevis oocytes at 3 uM by two-electrode voltage-clamp method relative to control; type: cell-based

SMILES	EC50 [1] [nM]	Rmax [2] [%]	EC50 [3] [nM]	Rmax [4] [%]	Activity [5] [%]	EC50 [6] [nM]	Rmax [7] [%]	Papp [9] [×10⁻⁶ cm/s]	Papp [10] [×10⁻⁶ cm/s]	Rmax ([4]; filed as partial agonist) [%]	also measured
COc1ccc(F)cc1-c1ccc(C(=O)NC[C@@H](N)C(=O)O)s1	1070	83	1450	23	< 5	740	306				
COC(=O)c1ccccc1-c1c2ccc(=N)cc-2oc2cc(N)ccc12.Cl [RHODAMINE123]								5.7	0.77		Ratio [8]: 7.5
N[C@H](CNC(=O)c1cc(Br)c(-c2ccccc2F)s1)C(=O)O	210	54	240			34	864	2.2	1.6	44	t1/2 [11]: > 2 h; fold change (FC) [12]: 2; Ratio EC50 [13]: 6.2; Ratio EC50 [14]: 2.6; Ratio [8]: 1.4; Ratio EC50 [15]: 7.1; Ratio EC50 [16]: 1.9; Activity ([17]; filed as agonist): Active; Compound Shows Reduced Efficacy Compared To Wild-Type Glun1/2C; Activity [18]: < 5%; Activity ([19]; filed as agonist): Active; Compound Shows Reduced Efficacy Compared To Wild-Type Glun1/2C
N[C@H](CNC(=O)c1ccc(-c2cccc(F)c2F)s1)C(=O)O	1990	62	3520		< 5	930	321			41	
N[C@H](CNC(=O)c1cc(Br)c(-c2ccccc2Br)s1)C(=O)O	18	58	16	30		3	430	7.4	0.9		t1/2 [11]: > 2 h; Ratio EC50 [13]: 6.2; Ratio [8]: 8.2; Ratio EC50 [15]: 5.5; Activity [20]: < 5%
N[C@H](CO)C(=O)O		102					116			93	
CC(C)OC(=O)[C@H](N)CNC(=O)c1ccc(-c2ccccc2Br)s1								89.6	107.4		t1/2 [11]: 0.367 h; Ratio [8]: 0.83
N[C@H](CNC(=O)c1ccc(-c2ccccc2C(F)(F)F)s1)C(=O)O	150	62	200	24	< 5	88	158				
N[C@H](CNC(=O)c1cc2c(Cl)ccc(Cl)c2[nH]1)C(=O)O											Rmax [21]: 38%
N[C@H](CNC(=O)c1ccc(-c2ccccc2F)s1)C(=O)O	880	63	980		< 5	230	410			45	
NCC(=O)O		100					100			100	Rmax [22]: 100%
CCc1ccccc1-c1ccc(C(=O)NC[C@@H](N)C(=O)O)o1											IC50 [23]: 150 nM; Rmax [24]: 65%; Rmax [25]: 77%; Rmax [26]: 7%; IC50 [27]: 1300 nM; IC50 [28]: 540 nM; Rmax [29]: 2%; IC50 [30]: 1100 nM
N[C@H](CNC(=O)c1ccc(-c2cccc3ccccc23)s1)C(=O)O	102	59	303	34		133	116				Activity [31]: < 5%
COc1ccccc1-c1ccc(C(=O)NC[C@@H](N)C(=O)O)s1	1280	90	1290	24	< 5	660	293				
Cc1cc(C(=O)NC[C@@H](N)C(=O)O)sc1-c1ccccc1Br	51	75	120	30		25	267				Activity [20]: < 5%
CCc1ccccc1-c1ccc(C(=O)NC[C@@H](N)C(=O)O)s1	57	77	81	32		41	234	1.4	2		t1/2 [11]: > 2 h; fold change (FC) [12]: 1.3; Activity [17]: inactive; Activity [31]: < 5%; Activity [19]: inactive
CCc1ccccc1-c1cccc2[nH]c(C(=O)NC[C@@H](N)C(=O)O)cc12								7.4	0.81		t1/2 [11]: > 2 h; Ratio [8]: 9.2
N[C@H](CNC(=O)c1ccc(-c2cccc(F)c2)s1)C(=O)O	3730	61	5580		< 5	1880	390			42	
N[C@H](CNC(=O)c1ccc(-c2ccccc2)s1)C(=O)O	2280	69	3270		< 5	640	326			43	IC50 [23]: 2100 nM; Rmax [24]: 395%; Rmax [25]: 137%; Rmax [26]: 20%; IC50 [28]: 1900 nM; Rmax [29]: 3%; IC50 [30]: 3900 nM
N[C@H](CNC(=O)c1ccc(-c2ccccc2Br)s1)C(=O)O	74	80	72	28	< 5	38	156	0.88	0.53		t1/2 [11]: > 2 h; fold change (FC) [12]: 1.5; Ratio EC50 [14]: 2.9; Ratio [8]: 1.6; Ratio EC50 [16]: 1.4; Activity [17]: inactive; Activity [19]: inactive
COc1cccc(F)c1-c1ccc(C(=O)NC[C@@H](N)C(=O)O)s1	290	67	180	29		110	179				Activity [18]: < 5%
